Values quoted from earlier work, collected in patent US20060074057A1, “Use of chenodeoxycholic acid for reducing adipose tissue” (priority 2004, published 2006).

Biological target: 11-beta-hydroxysteroid dehydrogenase type 1 (11BHSD1) (Homo sapiens, UniProt P28845)
Conditions: "has been shown"; no data or method given

11-beta-hydroxysteroid dehydrogenase type 1 (11BHSD1), sequence (P28845 whole entry): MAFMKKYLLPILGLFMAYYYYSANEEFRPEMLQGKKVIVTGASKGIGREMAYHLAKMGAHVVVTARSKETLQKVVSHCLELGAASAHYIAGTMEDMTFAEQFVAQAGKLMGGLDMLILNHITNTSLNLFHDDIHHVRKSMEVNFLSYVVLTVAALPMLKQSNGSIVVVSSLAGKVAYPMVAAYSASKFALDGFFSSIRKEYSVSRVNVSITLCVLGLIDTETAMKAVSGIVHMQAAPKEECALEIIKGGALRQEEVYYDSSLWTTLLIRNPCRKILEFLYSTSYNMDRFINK

inhibition of 11BHSD1 (result in words): selective inhibitor
Structure (SMILES): CC(CCC(=O)O)C1CCC2C3C(CC[C@]12C)[C@@]1(C)CC[C@@H](O)C[C@H]1C[C@H]3O (stereo partly drawn) [Chenodeoxycholic acid, 3-alpha,7-alpha-dihydroxy-5-beta-cholanic acid]
